# Results reported in patent publication US10144705B2 (Commissariat a l'energie atomique et aux energies …, priority 2012, dated 2018).
# Legend:
# [1] = test system: in-vitro cell-based BBB model (coculture of glial cells and brain endothelial cells); type: in vitro ADME
# Description: The in-vitro cell-based BBB model which is used to assess the permeability of fatty esters consists in a coculture of glial cells and brain endothelial cells. A transport buffer (150 mM NaCl, 5.2 mM KCl, 2.2 mM CaCl2, 0.2 mM MgCl2, 6 mM NaHCO3, 2.8 mM glucose and 5 mM Hepes) is added: 1500 μl to the basolateral chamber (which represents the cerebral parenchyma) and 500 μl to the apical chamber (which represents the blood). The fatty esters are introduced in the apical compartment. After 60 min, aliquots are removed from the apical and basolateral chambers for drug-concentration determination. The percentage of drug from the initial dosage that crossed BBB is calculated as follows: P (%)=[(Bf×1500)/(A0×500)]×100 where Bf is the amount of tested compounds in the basolateral compartment at the end point. A0 is the initial amount in the apical compartment at time point 0.
# [2] = cited from earlier work
Compound,permeability through the blood brain barrier [1],translocation within brain endothelial cells or in the basal compartment [1],oral bioavailability [2]
CCOC(=O)CN(C)C(=N)N [C2],not,no translocation,–
"CN(CC(=O)O)C(=N)N [creatine, 2-1(methylguanidino) acetic acid]",–,–,low
